Values of other authors in paper PMC9516332 (Frontiers in Oncology, 2022).
Read-outs that look alike come from different tables or passages of the source.

Key:
Settings in all cases: cited from earlier work
[1] = molecular target: panel of 255 wild-type kinases (Homo sapiens, UniProt P48729)
[2] = molecular target: panel of 255 wild-type kinases (Homo sapiens, UniProt Q15759)
[3] = molecular target: T1, panel of 255 wild-type kinases (Homo sapiens, UniProt Q02156)
T1 sequence (Q02156 1-737): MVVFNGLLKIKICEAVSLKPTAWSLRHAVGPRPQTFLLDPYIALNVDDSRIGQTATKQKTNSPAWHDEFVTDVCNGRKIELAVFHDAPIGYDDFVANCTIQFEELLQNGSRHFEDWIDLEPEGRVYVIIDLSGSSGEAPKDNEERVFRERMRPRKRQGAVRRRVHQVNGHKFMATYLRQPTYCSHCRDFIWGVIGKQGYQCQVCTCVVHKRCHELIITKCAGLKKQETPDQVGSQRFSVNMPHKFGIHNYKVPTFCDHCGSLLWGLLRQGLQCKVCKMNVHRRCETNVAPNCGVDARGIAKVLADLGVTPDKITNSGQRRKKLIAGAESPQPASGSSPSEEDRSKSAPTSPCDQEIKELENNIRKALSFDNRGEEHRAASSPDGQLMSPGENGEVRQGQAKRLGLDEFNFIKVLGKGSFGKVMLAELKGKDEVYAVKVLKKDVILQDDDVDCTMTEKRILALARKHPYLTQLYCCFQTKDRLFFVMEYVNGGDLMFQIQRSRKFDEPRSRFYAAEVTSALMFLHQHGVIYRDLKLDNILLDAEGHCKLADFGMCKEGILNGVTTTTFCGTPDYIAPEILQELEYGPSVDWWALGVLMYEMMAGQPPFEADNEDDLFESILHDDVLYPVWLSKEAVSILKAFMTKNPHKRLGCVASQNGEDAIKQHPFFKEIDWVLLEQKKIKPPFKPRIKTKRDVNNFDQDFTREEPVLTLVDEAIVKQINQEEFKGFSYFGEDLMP

[4] = molecular target: panel of 255 wild-type kinases (Homo sapiens, UniProt Q9BUB5)
[5] = molecular target: T2, panel of 255 wild-type kinases (Homo sapiens, UniProt O00141)
T2 sequence (O00141 1-431): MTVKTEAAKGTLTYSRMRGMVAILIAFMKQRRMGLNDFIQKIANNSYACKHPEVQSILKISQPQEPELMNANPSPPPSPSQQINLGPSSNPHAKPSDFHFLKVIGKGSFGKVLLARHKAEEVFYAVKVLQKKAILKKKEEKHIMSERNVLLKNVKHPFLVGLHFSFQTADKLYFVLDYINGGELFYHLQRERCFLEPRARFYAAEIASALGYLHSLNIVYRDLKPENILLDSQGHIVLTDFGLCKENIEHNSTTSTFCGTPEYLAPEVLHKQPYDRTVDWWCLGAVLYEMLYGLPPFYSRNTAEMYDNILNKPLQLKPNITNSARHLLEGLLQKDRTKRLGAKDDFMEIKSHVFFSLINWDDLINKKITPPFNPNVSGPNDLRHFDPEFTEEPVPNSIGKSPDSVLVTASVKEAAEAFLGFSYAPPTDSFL

[6] = molecular target: T3, panel of 255 wild-type kinases (Homo sapiens, UniProt Q9UQB9)
T3 sequence (Q9UQB9 1-309): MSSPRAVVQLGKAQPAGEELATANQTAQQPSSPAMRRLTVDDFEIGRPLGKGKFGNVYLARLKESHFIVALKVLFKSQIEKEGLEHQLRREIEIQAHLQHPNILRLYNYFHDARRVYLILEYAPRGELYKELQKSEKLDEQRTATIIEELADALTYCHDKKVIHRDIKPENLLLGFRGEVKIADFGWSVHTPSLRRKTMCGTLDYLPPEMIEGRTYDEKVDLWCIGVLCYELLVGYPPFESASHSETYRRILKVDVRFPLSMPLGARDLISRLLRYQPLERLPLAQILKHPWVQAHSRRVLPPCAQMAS

[7] = molecular target: panel of 255 wild-type kinases (Homo sapiens, UniProt Q9P1W9)
[8] = molecular target: panel of 255 wild-type kinases (Homo sapiens, UniProt P48730)
[9] = molecular target: panel of 255 wild-type kinases (Homo sapiens, UniProt Q05397)
[10] = molecular target: panel of 255 wild-type kinases (Homo sapiens, UniProt P54764)
[11] = molecular target: panel of 255 wild-type kinases (Homo sapiens, UniProt Q5VT25)
[12] = molecular target: panel of 255 wild-type kinases (Homo sapiens, UniProt P06213)
[13] = molecular target: panel of 255 wild-type kinases (Homo sapiens, UniProt Q9H2G2)
[14] = kinase CK1α, 1 µmol/L single concentration, ref DOI: 10.1158/1535-7163.MCT-18-0877
[15] = p38β, 1 µmol/L single concentration, ref DOI: 10.1158/1535-7163.MCT-18-0877
[16] = kinase PKCε, 1 µmol/L single concentration, ref DOI: 10.1158/1535-7163.MCT-18-0877
[17] = MNK1, 1 µmol/L single concentration, ref DOI: 10.1158/1535-7163.MCT-18-0877
[18] = kinase SGK, 1 µmol/L single concentration, ref DOI: 10.1158/1535-7163.MCT-18-0877
[19] = AurC kinase assay, 1 µmol/L single concentration, ref DOI: 10.1158/1535-7163.MCT-18-0877
[20] = kinase PIM2, 1 µmol/L single concentration, ref DOI: 10.1158/1535-7163.MCT-18-0877
[21] = kinase CK1δ, 1 µmol/L single concentration, ref DOI: 10.1158/1535-7163.MCT-18-0877
[22] = kinase FAK, 1 µmol/L single concentration, ref DOI: 10.1158/1535-7163.MCT-18-0877
[23] = kinase EPHA4, 1 µmol/L single concentration, ref DOI: 10.1158/1535-7163.MCT-18-0877
[24] = MRCKα, 1 µmol/L single concentration, ref DOI: 10.1158/1535-7163.MCT-18-0877
[25] = kinase INSR, 1 µmol/L single concentration, ref DOI: 10.1158/1535-7163.MCT-18-0877
[26] = kinase SLK, 1 µmol/L single concentration, ref DOI: 10.1158/1535-7163.MCT-18-0877
[27] = kinase CK1α, 1 µmol/L single concentration, ref DOI: 10.1371/journal.pone.0092146
[28] = p38β, 1 µmol/L single concentration, ref DOI: 10.1371/journal.pone.0092146
[29] = kinase PKCε, 1 µmol/L single concentration, ref DOI: 10.1371/journal.pone.0092146
[30] = MNK1, 1 µmol/L single concentration, ref DOI: 10.1371/journal.pone.0092146
[31] = kinase SGK, 1 µmol/L single concentration, ref DOI: 10.1371/journal.pone.0092146
[32] = AurC kinase assay, 1 µmol/L single concentration, ref DOI: 10.1371/journal.pone.0092146
[33] = kinase PIM2, 1 µmol/L single concentration, ref DOI: 10.1371/journal.pone.0092146
[34] = kinase CK1δ, 1 µmol/L single concentration, ref DOI: 10.1371/journal.pone.0092146
[35] = kinase FAK, 1 µmol/L single concentration, ref DOI: 10.1371/journal.pone.0092146
[36] = kinase EPHA4, 1 µmol/L single concentration, ref DOI: 10.1371/journal.pone.0092146
[37] = MRCKα, 1 µmol/L single concentration, ref DOI: 10.1371/journal.pone.0092146
[38] = kinase INSR, 1 µmol/L single concentration, ref DOI: 10.1371/journal.pone.0092146
[39] = kinase SLK, 1 µmol/L single concentration, ref DOI: 10.1371/journal.pone.0092146

Structure (SMILES)	%-inhibition at 1 µmol/L, CK1α [1, 14] [%]	%-inhibition, p38β [2, 15] [%]	%-inhibition at 1 µmol/L, PKCε [3, 16] [%]	%-inhibition, MNK1 [4, 17] [%]	%-inhibition at 1 µmol/L, SGK [5, 18] [%]	%-inhibition AurC [6, 19] [%]	%-inhibition at 1 µmol/L, PIM2 [7, 20] [%]	%-inhibition at 1 µmol/L, CK1δ [8, 21] [%]	%-inhibition at 1 µmol/L, FAK [9, 22] [%]	%-inhibition at 1 µmol/L, EPHA4 [10, 23] [%]	%-inhibition, MRCKα [11, 24] [%]	%-inhibition at 1 µmol/L, INSR [12, 25] [%]	%-inhibition at 1 µmol/L, SLK [13, 26] [%]	%-inhibition at 1 µmol/L, CK1α [1, 27] [%]	%-inhibition, p38β [2, 28] [%]	%-inhibition at 1 µmol/L, PKCε [3, 29] [%]	%-inhibition, MNK1 [4, 30] [%]	%-inhibition at 1 µmol/L, SGK [5, 31] [%]	%-inhibition AurC [6, 32] [%]	%-inhibition at 1 µmol/L, PIM2 [7, 33] [%]	other results
CC#CC(=O)N1CCC[C@H]1c1nc(-c2ccc(C(=O)Nc3ccccn3)cc2)c2c(N)nccn12 [acalabrutinib]	10	-3	-9	12	-5	7	-17	2.76	-1.39	-3	-7.47	-4.67	1.61	–	–	–	–	–	–	–	–
COc1cc(N2CCC(N3CCN(C)CC3)CC2)ccc1Nc1ncc(Cl)c(Nc2ccccc2P(C)(C)=O)n1 [brigatinib]	–	–	–	–	–	–	–	–	–	–	–	–	–	–	–	–	–	–	–	–	%-inhibition at 1 µmol/L, CK1α [1]: 11%; %-inhibition, p38β [2]: 3.38%; %-inhibition at 1 µmol/L, PKCε [3]: 39%; %-inhibition, MNK1 [4]: 16%; %-inhibition at 1 µmol/L, SGK [5]: 4.76%; %-inhibition AurC [6]: 44%; %-inhibition at 1 µmol/L, PIM2 [7]: -11%; %-inhibition at 1 µmol/L, CK1δ [8]: -3.62%; %-inhibition at 1 µmol/L, FAK [9]: 99%; %-inhibition at 1 µmol/L, EPHA4 [10]: 3%; %-inhibition, MRCKα [11]: 18%; %-inhibition at 1 µmol/L, INSR [12]: 101%; %-inhibition at 1 µmol/L, SLK [13]: 95%
CCCS(=O)(=O)Nc1ccc(F)c(C(=O)c2c[nH]c3ncc(-c4ccc(Cl)cc4)cc23)c1F [vemurafenib]	–	–	–	–	–	–	–	–	–	–	–	–	–	-4.34	24	-8	23	-0.122	13	-2	%-inhibition at 1 µmol/L, CK1δ [8, 34]: -3%; %-inhibition at 1 µmol/L, FAK [9, 35]: -3.55%; %-inhibition at 1 µmol/L, EPHA4 [10, 36]: -2%; %-inhibition, MRCKα [11, 37]: 0.383%; %-inhibition at 1 µmol/L, INSR [12, 38]: 17%; %-inhibition at 1 µmol/L, SLK [13, 39]: 43%
CCc1cc2c(cc1N1CCC(N3CCOCC3)CC1)C(C)(C)c1[nH]c3cc(C#N)ccc3c1C2=O [alectinib]	22	0.144	10	18	12	2.65	2.36	-5.53	17	3	-0.84	83	12	–	–	–	–	–	–	–	–
CC(=O)Nc1cccc(-n2c(=O)n(C3CC3)c(=O)c3c(Nc4ccc(I)cc4F)n(C)c(=O)c(C)c32)c1 [trametinib]	–	–	–	–	–	–	–	–	–	–	–	–	–	3	2.31	6	-3	0.217	1	-4	%-inhibition at 1 µmol/L, CK1δ [8, 34]: 0.365%; %-inhibition at 1 µmol/L, FAK [9, 35]: -2.41%; %-inhibition at 1 µmol/L, EPHA4 [10, 36]: -5.3%; %-inhibition, MRCKα [11, 37]: -0.565%; %-inhibition at 1 µmol/L, INSR [12, 38]: -30%; %-inhibition at 1 µmol/L, SLK [13, 39]: -2.6%
